From US10980850B2, “Use of IAP inhibitor and oncolytic virus in preparation of anti-tumor drug” (Guangzhou Virotech Pharmaceutical Co., Ltd., priority 2016, dated 2021)

How the values were obtained:
[1] = tested on: pancreatic cancer; conditions: 10 μmol/L alone; cells without drugs 17%; cited from earlier work
[2] = tested on: Caspase 3/7, 8, and 9; experiment: Caspase activity (chemiluminescence/MTT) in HCT116 cells; assay type: cell-based, human; conditions: M1 1 MOI, LCL161 5 μM, 72 hours, vs control
Procedure: (§1) The cells in the exponential growth phase were selected and added into a DMEM complete culture medium (containing 10% fetal bovine serum and 1% penicillin/streptomycin (Life Technologies)) to prepare a cell suspension. The cells were inoculated into a 96-well culture plate at a density of 4×10^3/well. After 12 hours, the cells were completely adherent to the walls of the culture plate. In this experiment, cultures were divided into a control group, a single drug group (using LCL161 alone), a group infected with M1, and a group treated with combined LCL161/M1. The doses used were as follows: cells were infected with M1 at 1 MOI ([…]) or 0.1 MOI (Huh7 cells), and LCL161 was added at a concentration of 5 μM. Each of the above mentioned treatment groups was divided in four for detecting MTT and the activities of Caspase 3/7, 8 and 9. 72 hours after treatment, the reagent for detecting Caspase3/7, 8 and 9 was added into each well on the basis of the volume, and the resulting wells were placed into the incubator for a further half hour. The liquid was absorbed into the opaque 96 well plate for measuring the chemical luminous intensity by a microplate reader. Meanwhile, MTT was detected to calculate the survival rate of the cells. The activity of Caspase was standardized by the ratio of chemiluminescent value to MTT value.

[3] = tested on: human colorectal cancer cell line HCT116; experiment: MTT survival rate of HCT116 cells (LCL161/Birinapant, M1 virus); assay type: cell-based; conditions: MTT 72 hours, 5 μM LCL161, MOI of M1 not stated (FIG. 2(A))
Procedure: a) Inoculation of cells and administration treatment: cells in the exponential growth phase were selected and added into a DMEM complete culture medium (containing 10% fetal bovine serum and 1% penicillin/streptomycin (Life Technologies)) to prepare a cell suspension. The cells were inoculated into a 96-well culture plate at a density of 4×10^3/well. After 12 hours, the cells were completely adherent to the wells. The experiment was divided into a control group and a single drug group (using 5 μM LCL161 or Birinapant alone), a group infected with M1 and a group treated with LCL161/M1 or Birinapant/M1. In M1-containing assays, virus was provided at varying MOI. The concentration of LCL161 or Birinapant was 5 μM • b) Reaction of MTT with succinate dehydrogenase in the cells: 72 hours after culture, 20 μl MTT (5 mg/ml) was added into each well, and was incubated for a further 4 hours. After incubation, granular blue and purple formazan crystals formed in the living cells were observed by microscopic examination. • c) Dissolution of formazan particles: those cultures having cells with formazan crystals were further processed as follows. […] The optical density (OD value) of each well was detected in an enzyme linked detector at a wavelength of 570 nm. […] The calculated survival rate of the cells=OD value of the drug treatment group/OD value of the control group×100%. […]

[4] = tested on: transplantable tumor of HCT116 cancer strain; experiment: Transplantable tumor of HCT116 in nude mice; assay type: in vivo, BALB/c nude mice; conditions: HCT116 tumors
Procedure: (§2) The present experiment was performed as a randomized and single-blinded trial. 5×10^6 HCT116 or 1×10^7 Huh7 cells were subcutaneously injected into dorsa of 4-week-aged BALB/c nude mice. When the size of tumors reached 50 mm^3, the mice were divided into groups, including an untreated control group (Control), a group treated with LCL161 alone (i.p. 20 mg/kg/d), a group infected with M1 alone (transplantable tumor of HCT116 cancer strain was injected with M1 virus via tail vein (2×10^6 PFU/time), and transplantable tumor of Huh7 cancer strain was injected with M1 virus via tail vein (5×10^5 PFU/time)) and a group treated with LCL161/M1 (LCL161 and M1 virus were administered in the same way at the same dose), and four injections was performed continuously (for HCT116, injection was conducted on day 5, day 6, day 7, and day 8; for Huh7, injection was conducted on day 10, day 11, day 12, and day 13). The weight, length and width of the tumor were measured every two days, and the volume of the tumor was calculated according to the formula: (length×width^2)/2. After measuring the volume of the tumor, one way ANOVA statistics was carried out, wherein *** indicates p<0.001, ** indicates p<0.01, and * indicates p<0.05.

[5] = tested on: transplantable tumor of Huh7 cancer strain; experiment: Transplantable tumor of Huh7 in nude mice; assay type: in vivo, BALB/c nude mice; conditions: Huh7 tumors; LCL161 i.p. 20 mg/kg/d; M1 tail vein 5×10^5 PFU/time; four injections day 10-13
Procedure: as §2

[6] = tested on: Caspase 3/7, 8, and 9; experiment: Caspase activity (chemiluminescence/MTT) in Huh7 cells; assay type: cell-based, human; conditions: M1 0.1 MOI, LCL161 5 μM, 72 hours, vs control
Procedure: as §1

SMILES | apoptosis rate [1] | activities of Caspase 3/7, 8, and 9 [2] | survival rate [3] | reduction in tumor volume as compared with the control group ([4]; LCL161 i.p. 20 mg/kg/d, M1 tail vein 2×10^6 PFU/time, four injections day 5-8) | tumor volume (in words) ([4]; same dosing, vs control group) | reduction in tumor volume as compared with the control group [5] | activities of Caspase 3/7, 8, and 9 [6]
Nc1ccn([C@@H]2O[C@H](CO)[C@@H](O)C2(F)F)c(=O)n1 [Gemcitabine] | 58% |  |  |  |  |  | 
CN[C@@H](C)C(=O)N[C@H](C(=O)N1CCC[C@H]1c1nc(C(=O)c2ccc(F)cc2)cs1)C1CCCCC1 [LCL161] |  | only slightly up-regulated | 92.6% | 29.15% | only a slight reduction in tumor volume | 18.1% | only slightly up-regulated
